These are literature values, as cited in article PMC8597081, “Diphenylalanine Motif Drives Self‐Assembling in Hybrid PNA‐Peptide Conjugates” (Chemistry (Weinheim an Der Bergstrasse, Germany), 2021).

The pKa is the pH at which an ionisable group is half protonated.

The conditions of the series: N3-protonated cytosine; N7-protonated guanine. The protocol: Nevertheless, as it can be seen in the 1D spectra (Figure S12) even at 46.9 mM concentration, the absence of a signal at low field arising from the imino proton let speculate that guanine and cytosine are not paired.

Turning to `Nc1cc[nH]c(=O)n1` [cytosine], the pKa is 4.2.
With `Nc1nc2nc[nH]c2c(=O)[nH]1` [guanine], the pKa was 1.9–2.2.
